Results on one molecule are retold here after patent publication US11857544B2, “Composition or method including (t)ew-7197 for treating or preventing corneal endothelial diseases” (THE DOSHISHA, priority 2017, dated 2024).

In assay [1] the test system is type I collagen. Kind of assay: Area of type I collagen expression by immunostaining, Col8a2 knock-in mice (Example 5). The conditions noted are these: 0.02% eye drop, 8 weeks. The class given is in vivo. As to the method: (§1) 5 μL of 0.02% (about 0.5 mM) EW-7197 eye drop or a base agent (7% DMSO containing PBS) was administered as an eye drop to both eyes of 4-month-old alpha 2 collagen 8 gene (Col8a2) knock-in mice 4 times a day for 8 weeks. The corneal endothelial cell density was measured using a specular microscope KS3M (Konan Medical, Inc.) at before eye drops, and 2, 4, 6, and 8 weeks after eye drops. Mice were euthanized by intraperitoneally administering an excessive amount (200 mg/kg body weight or greater) of anesthetic injection Somnopentyl (Kyoritsu Seiyaku Corporation) 8 weeks after injection. After confirming cardiac arrest, both eye balls were harvested. The harvested eye balls were incised to prepare a corneal fragment. Immunostaining of type I collagen and fibronectin was performed as follows. Image-Pro (Nippon Roper K.K.) was used to analyze the area of type I collagen and fibronectin expression.
After immobilizing a mouse corneal fragment for 10 minutes at room temperature in 4% paraformaldehyde, 0.5% TritonX-100 was added and allowed to permeate for 5 minutes. 1% bovine serum albumin (BSA) was added and the fragment was incubated for 1 hour at room temperature. The corneal fragment was then immersed in a primary antibody solution and reacted overnight at 4° C. […]

Assay [2] has as its system Col8a2 knock-in mice. Kind of assay: Corneal endothelial cell density after eye drops in Col8a2 knock-in mice (Example 5, 8 weeks). The class given is in vivo. The note with it: for Amount of change in the corneal endothelial cell density (ΔECD): 0.02% eye drop 4 times a day. As to the method: as §1, with “This Example evaluated the efficacy of an EW-7197 eye drop on Fuchs' endothelial corneal dystrophy using a Fuchs' endothelial corneal dystrophy animal model, Col8a2 knock-in mice. Col8a2 knock-in mice are established animal models of Fuchs' endothelial corneal dystrophy (reference: Jun et al., Hum Mol Genet. 2012 Jan. 15; 21(2): 384-93). 5 μL” for “5 μL”

The test system of assay [3] is activated form of cleaved caspase 3. Kind of assay: Western blot for cleaved caspase 3 in TGF-β-stimulated iFECD. The class given is cell-based, human. The conditions noted are these: 0.1, 1, 10 μM. As to the method:
[…] were seeded on a 12-well plate at a ratio of 8×10^4 cells per well, and cultured at 37° C. (5% CO2) for 24 hours. DMEM+10% FBS+1% P/S was used as the medium. After 24 hours, the medium was removed. EW-7197 (Selleck Chemicals, 57530) was added so that the final concentration would be 0.1, 1, or 10 μM, and SB431542 (WAKO, 192-16541) was added so that the final concentration would be 10 μM, and the medium was cultured for 24 hours. DMEM+2% FBS+1% P/S was used as the medium. After 24 hours, the medium was removed and cultured […] so that the final concentration of 10 ng/ml of Transforming Growth Factor-132 Human recombinant (WAKO, 200-19911) and […] would be 0.1, 1, and 10 μM, and that of SB431542 would be 10 μM. DMEM+2% FBS+1% P/S was used as the medium. After 24 hours, the cell morphology and apoptosis were observed under a phase contrast microscope. To retrieve floating and dead cells, the medium was retrieved on ice, cells were washed twice with 1×PBS(-) and the solution thereof was also retrieved. The solution was centrifuged for 5 min at 4° C. and 800 g and the supernatant was discarded to obtain a precipitate. […] The detected band intensities were analyzed with Lumino Image Analyzer LAS-4000 mini (Fuji Film) and ImageQuantTM software (GE Healthcare).
(A western blot detects proteins with antibodies after separation by electrophoresis.)

As for `Cc1cccc(-c2[nH]c(CNc3ccccc3F)nc2-c2ccc3ncnn3c2)n1` [EW-7197, N-((4-([1,2,4]triazolo[1,5-a]pyridin-6-yl)-5-(6-methylpyridin-2-yl)-1H-imidazol-2-yl)methyl)-2-fluoroaniline], the “area of type I collagen expression compared to the base agent group” value in assay [1] is recorded as “decreasing trend”. Moreover, the “decrease in the corneal endothelial cell density compared to the base agent group” value in assay [2] (0.02% eye drop) is “suppressed significantly”. Further, the “Amount of change in the corneal endothelial cell density (ΔECD)” value in assay [2] (week 0 (before eye drop)) is given as 0 cells/mm^2; in assay [2] (week 4), −121.4 cells/mm^2; in assay [2] (week 8), −284.5 cells/mm^2. In addition, the “activated form of cleaved caspase 3 (about 17 kDa)” value in assay [3] is recorded as “suppressed to the same degree as the control group without stimulation with TGF-β or 10 μM of SB431542”.
